This is an account of results in patent publication US8802439B2, “Methods for enhancing infectivity of retroviruses” (priority 2009, dated 2014).

The test system of this assay is HIV-1. Kind of assay: HIV-1 replication in human PBLs monitored by p24 ELISA. It is filed as cell-based. Here is the method: (E) Replication kinetics of wild-type HIV-1 in human PBLs is enhanced by Pin1 isomerase inhibitors. 2×10^6 PBLs from patient donors were challenged with HIV-1 in the presence (lighter squares, top) or absence (black circles, bottom) of 10 μM PiB, which was added again at day 3 to maintain drug pressure. Replication was monitored by sampling virus concentration in supernatants via p24 ELISA.
Cell Lines and PBMCs: The TZM-bl cell line was obtained through the NIH AIDS Research and Reference Reagent Program, Division of AIDS, NIAID, NIH: TZM-bl from Dr. John C. Kappes, Dr. Xiaoyun Wu and Tranzyme Inc. The sMAGI cell line was obtained through the AIDS Research and Reference Reagent Program, Division of AIDS, NIAID, NIH: CMMT-CD4-LTR-β-Gal (sMAGI) from Dr. Julie Overbaugh. African green kidney BS-C-1 CCL-26, African green kidney CV-1 CCL-70, African green kidney Vero CCL-81, owl kidney OMK(637-69) CRL-1556 and 293T cell lines were obtained from ATCC. To generate PBMCs, human blood from normal healthy donors (General Clinical Research Center, TSR1) was fractionated via gradient centrifugation through histopaque-1077 (Sigma-Aldrich). Peripheral blood lymphocytes (PBLs) were cultured in RPMI supplemented with 20% FBS, 20 U ml^−1 IL-2.
Infection assays for retrovirus: Single-round infections: CD4^+ TZM-bl 100,000 cells/well/mL were seeded onto 24-well plates 24 hours prior to infection. These cells were infected in quadruplicate to 24-well plates. Infectivity was scored using an enzymatic galactosidase activity assay. Specifically, infected TZM-bl cells were washed and lysed, and 20 μl of lysate was transferred to a 96-well plate for detecting β-galactosidase activity. 100 μl of reaction buffer Galacton-Star substrate (Applied Biosystems, Bedford, Mass.), diluted 1:50, was added to 20 μl of lysate, and the light emission was measured over 1 second in a microplate luminometer after 30 minutes incubation. For human PBMC infections, cells were exposed to 10 ng of wild-type virus for 6 hours, washed, and split into two flasks: one with 10 μM PiB added on day 0 and 3, and one without PiB. Replication was monitored by p24 ELISA. For measuring infectivity of GFP-virus, 50,000 TZMb1, sMAGI, OMK, Vero, BSC-1 and CV-1 cells/well/mL were seeded onto 6-well plates respectively 24 hours prior to infection. Viruses were used to infect in duplicate wells, incubated for 48 hours, washed with PBS, trypsinized, fixed in 1% formaldehyde and subsequently analyzed by fluorescence-activated cell sorting (FACS) for percentage cells infected. […]
PBLs from human donors were challenged with HIV-1 in the presence (squares) or absence (circles) of 10 μM PiB. Replication was monitored by sampling virus concentration in supernatants via p24 ELISA. […]

Consider `CCOC(=O)CN1C(=O)c2ccc3c4c(ccc(c24)C1=O)C(=O)N(CC(=O)OCC)C3=O` [PiB, diethyl-1,3,6,8-tetrahydro-1,3,6,8-tetraoxobenzo[lmn][3,8]phenanthroline-2,7-diacetate], for which the “replication kinetics of wild-type HIV-1 in human PBLs” value (10 μM PiB, added again at day 3) is given as “enhanced”. Further, the “elevated replication kinetics versus untreated” value (human PBLs, 10 μM PiB, after six days, average of two donors) is given as “seven fold”. Under “human PBLs, day 5”, the “increase in infectivity versus untreated” value is recorded as “seven-fold”. For the same compound, the “p24 in supernatant at peak replicative differential” value (human PBLs, day 5, untreated 0.2 μg/ml) is 1.4 µg/mL.
